The subject of assay [1] is TSPO. Put plainly: Competition binding with [3H]PK11195 in human brain (method of J Nucl Med 2011;52:24-32). The note with it: for ratio of specific signal, LAB: LAB set to 1; for LAB/HAB: ratio of Ki LAB to Ki HAB; for ratio of specific signal, HAB / ratio of specific signal, MAB: relative to LAB = 1. The source says:
(§1) Thus, for example, the binding affinity of the compound may be determined in tissue derived from a HAB and in tissue derived from a LAB. An appropriate method may comprise the following steps: • obtain samples from human volunteers of tissue which contains TSPO (for example brain (for example for archive samples) or platelets (for example from blood)).
(§2) In more detail, as an example, a 48 well plate may be used, for example with 8-12 different concentrations of experimental drug for each experiment (be it the radiolabelled drug for saturation studies or the un-radiolabelled drug for competition studies). Concentrations may range from around 0.1 nM, increasing in roughly half logs (ie 0.1 nM, 0.3 nM, 1 nM, 3 nM etc) up to around 10,000 nM. 3-4 wells may be used for each concentration and the average taken to increase the precision around the estimate for each data point. The amount of tissue material required depends on how much TSPO is in the chosen tissue. For brain ˜100 micrograms of protein in each well (500 microlitres) may typically be used, giving a protein concentration of ˜200 micrograms/ml. Similar amounts may be used for platelets. For a tissue with very high TSPO levels (eg adrenal gland) a lot less protein would be needed.

Assay [2] concerns the target T1, TSPO (Homo sapiens, UniProt P30536). The description is as above. Also on record: Ki MAB; Vinpocetine Ki, MAB. Conditions: mixed affinity binders, single value, human brain; read-out: Ki MAB.
Source text: as §1, §2

The target of assay [3] is T1, TSPO. The description is as above. Also on record: from tissue; host or cells: human brain (membrane preparation, by the cited method).
Source text: as §1, §2
Target sequence in this assay (P30536 2-169): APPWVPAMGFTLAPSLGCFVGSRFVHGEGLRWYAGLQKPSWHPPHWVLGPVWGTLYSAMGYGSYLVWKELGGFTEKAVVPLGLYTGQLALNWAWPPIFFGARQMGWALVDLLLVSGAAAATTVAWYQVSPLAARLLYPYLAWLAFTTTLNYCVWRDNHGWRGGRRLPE

Assay [4] addresses T2, TSPO (Homo sapiens, UniProt P30536, T147A). The assay is described as above. Also on record: from tissue; host or cells: human brain (membrane preparation, by the cited method). Conditions: human brain.
Source text: as §1, §2

For assay [5], the target named is T1, TSPO. Also noted: from tissue; host or cells: human brain (membrane preparation, by the cited method). The note with it: background, reference (5); read-out: Ki values for LABs; cited from earlier work.
Target sequence in this assay (P30536 2-169): as above
For assay [6], the target named is T2, TSPO. Also noted: from tissue; host or cells: human brain (membrane preparation, by the cited method). Conditions: background, reference (5); read-out: Ki values for HABs; cited from earlier work.
The target in assay [7] is T1, TSPO. The experiment in a line: Competition binding assay, unlabelled PBR28 displacing [3H]PK11195 in human platelet membranes. Conditions: platelets, mean±SEM. Also noted: from tissue. How it is done: (§3) The study protocol, volunteer information and informed consent forms were approved by the local Research Ethics Committee. Forty-one healthy volunteers (29 male, 12 female, mean age 36.3±1.4 years) were recruited. […] Venous blood (50 ml) was drawn into EDTA-containing tubes, and separated into a lymphocyte-rich bottom layer (for genetic analysis) and platelet-rich top layer by centrifugation (180×g, 15 min, 4° C.). The platelet-rich layer (for binding assays) was re-centrifuged (1800×g, 15 min, 4° C.) to produce a platelet-containing pellet. Platelet membranes were prepared as previously described (5).
(§4) Binding data were analysed using GraphPad Prism 5.0. Single site and two site competition models were fitted using the least squares algorithm and model selection was compared using an F-test. The null hypothesis, that the data fitted a single site model, was rejected if the p value was less than 0.05. […] MABs were defined as subjects with two binding sites. Data are expressed as the mean±standard error of the mean (SEM).
Target sequence in this assay (P30536 2-169): as above

Assay [8] concerns the target T2, TSPO. The assay is described as above. Also on record: from tissue. Conditions: platelets, mean±SEM. On the procedure:
as §3, §4

For assay [9], the system named is TSPO. The experiment in a line: Competition radioligand binding assay with [3H]PK11195 and unlabelled GE1 in HABs and LABs. Also noted: species or system human. Conditions: LAB mean Ki / HAB mean Ki. On the procedure: (§5) FIG. 6: Competition radioligand binding assay with [3H]
(§6) Binding assays were performed as for the other compounds, as described above. The compound concentrations used were 10000 nM, 3000 nM. 1000 nM, 300 nM, 100 nM. 30 nM, 10 nM, 3 nM, 1 nM, 0.3 nM and 0.03 nM. 6 HABS and 6 LABs were used.

Assay [10] addresses T1, TSPO. The assay is described as above. Also on record: from tissue; host or cells: human brain (membrane preparation, by the cited method). How it is done: as §5, §6
Target sequence in this assay (P30536 2-169): as above
The target in assay [11] is T2, TSPO. The description is as above. Also on record: from tissue; host or cells: human brain (membrane preparation, by the cited method). How it is done:
as §5, §6

Assay [12] deals with TSPO. Put plainly: Autoradiography with [18F]FEPPA on slides previously characterised with [3H]PBR28. Conditions: LAB slide versus HAB and MAB slides. The class given is binding. From the text:
FIG. 4: Autoradiograhpy (above) with [^18F]FEPPA (structure below). The sample slides in the figure have been previously characterised with [^3H]PBR28 and are all from HABs and MABs, but for the slide second from the left which is a LAB.

The mark [13] stands for this setting: grouping of ligands into 3 distinct affinities, read-out: affinity for the "Low Affinity receptor".
Where [14] appears, read: low affinity binders, human brain, read-out: Ki LAB.
The mark [15] stands for this setting: high affinity binders, nM, read-out: Ki HAB.
Setting [16] is: mixed affinity binders, two values given, human brain, read-out: Ki MAB, second (low affinity) value.
The mark [17] stands for this setting: mixed affinity binders, two values given, read-out: Ki MAB, first (high affinity) value.

Where “and” joins values, the source holds several entries; their conditions need not be identical. Equal values may be shown once. Read-outs that look alike come from different tables or passages of the source. Where only a bound is given, the exact number is not on record here.

T2 sequence (P30536 2-169 T147A): as the sequence (P30536 2-169) above, with T146A counted along it

Consider `CCC(C)N(C)C(=O)c1cc2ccccc2c(-c2ccccc2Cl)n1` (centres unmarked) [PK11195, 1-(2-Chlorophenyl)-N-methyl-N-(1-methylpropyl)-3-isoquinolinecarboxamide], for which, in the assay with TSPO [1] (assay as in Owen et al (2011) J Nucl Med 52, 24-32), the “difference in binding affinity to Ala147TSPO and Thr147TSPO” value is “No significant difference in binding affinity has been detected”.
For the compound `CCN(CC)C(=O)Cc1c(-c2ccc(OCCCF)cc2)nc2ccc(Cl)cn12` [PBR111], the Ki at TSPO [2] was 30.3 ± 4.1 nM; on TSPO [3] (setting [13]), approximately 60 nM; at TSPO [3] (setting [14]), 61.8 ± 10.7 nM; on TSPO [4] (setting [15]) it was 15.6 ± 3.7 nM; at TSPO [5], 62 nM; on TSPO [6], 16 nM. The “ratio of specific signal, LAB” value in the assay on TSPO [1] was found to be 1. In the assay with TSPO [1], the LAB/HAB was found to be 4. For the same compound, the “ratio of specific signal, HAB” value in the assay on TSPO [1] came to 4.0. The “ratio of specific signal, MAB” value in the assay with TSPO [1] is listed as 2.5.
As to `COc1ccccc1CN(C(C)=O)c1cnccc1Oc1ccccc1` [PBR28], the Ki on TSPO [3] (setting [14]) is 188 ± 7 nM; at TSPO [3] (setting [16]), 313 nM; at TSPO [4] (setting [15]), 3.4 ± 0.2 nM; on TSPO [4] (setting [17]), 4 nM; at TSPO [5], 200 nM; at TSPO [6], 4 nM. For the same compound, the Ki came to 187 ± 19.7 nM at TSPO [7] (LABs (2/41 subjects), read-out: Ki, single class of low affinity sites); 297 ± 43.3 nM on TSPO [7] (MABs (12/41 subjects), read-out: Ki, two-site model, low affinity site); 2.17 ± 0.17 nM on TSPO [8] (HABs (27/41 subjects), read-out: Ki, single class of high affinity sites); 2.23 ± 0.31 nM at TSPO [8] (MABs (12/41 subjects), read-out: Ki, two-site model, high affinity site).
The IC50 is the midpoint of a concentration-inhibition curve. As to `CCN(CC)C(=O)C1CCCC2C1c1c(OC)cccc1N2CCF` (centres unmarked) [GE1], the Ki on TSPO [3] (setting [14]) was 145 ± 22.1 nM; at TSPO [4] (setting [15]), 12.3 ± 2.1 nM; on TSPO [10] (6 LABs, racemate, read-out: Ki, mean of LABs), 145 nM; on TSPO [10] (individual LAB subjects, read-out: Ki), 87.7 nM and 91.9 nM and 138 nM and 115 nM and 235 nM and 145 nM; at TSPO [11] (6 HABs, racemate, read-out: Ki, mean of HABs), 12.3 nM; at TSPO [11] (individual HAB subjects, read-out: Ki) it was 3.85 nM and 13.8 nM and 9.12 nM and 12.7 nM and 18.1 nM and 16.5 nM. Further, the Affinity shift with TSPO [9] turned out to be 11.8 fold. Also, the “ratio of specific signal, LAB” value with TSPO [1] was 1. Besides, in the assay on TSPO [1], the LAB/HAB amounted to 11.8. In addition, the “ratio of specific signal, HAB” value in the assay on TSPO [1] is 11.8. For the same compound, in the assay on TSPO [1], the “ratio of specific signal, MAB” value stood at 6.4. The IC50 was 103 nM and 108 nM and 162 nM and 135 nM and 276 nM and 170 nM on TSPO [10] (individual LAB subjects, 5 nM [3H]PK11195); 4.51 nM and 16.1 nM and 10.7 nM and 14.9 nM and 21.2 nM and 19.3 nM at TSPO [11] (individual HAB subjects, 5 nM [3H]PK11195).
In the case of `CC(=O)N(Cc1ccccc1O[11CH3])c1cnccc1Oc1ccccc1` [PBR28], in the assay on TSPO [1], the “ratio of specific signal, LAB” value was determined as 1; the LAB/HAB stood at 55; the “ratio of specific signal, HAB” value was found to be 55.3; the “ratio of specific signal, MAB” value stood at 28.2.
For `CCN(Cc1ccccc1)C(=O)Cn1c(=O)n(C)c2cnc(-c3ccccc3)nc21` [Emapunil], the Ki on TSPO [2] is 10.5 ± 0.99 nM; on TSPO [3] (setting [13]), less than 31 nM; on TSPO [3] (setting [14]), 30.3 ± 8.7 nM; on TSPO [4] (setting [15]), 2.4 ± 0.67 nM. Moreover, the LAB/HAB in the assay on TSPO [1] turned out to be 12.6.
`CC(=O)N(Cc1ccccc1OCCF)c1cnccc1Oc1ccccc1` [FEPPA]: in the assay on TSPO [12], the autoradiography signal result is on record as “lack of signal for the LAB”.
`COc1ccc(OC)c(CN(C(C)=O)c2cc(F)ccc2Oc2ccccc2)c1` [DAA1106]: the Ki at TSPO [2] turned out to be 4.8 ± 0.4 nM. For the same compound, the Ki on TSPO [3] (setting [14]) amounted to 13.1 ± 1.3 nM. Further, the Ki on TSPO [4] (setting [15]) was 2.8 ± 0.3 nM. Also, in the assay with TSPO [1], the “ratio of specific signal, LAB” value came to 1; the LAB/HAB worked out at 4.7; the “ratio of specific signal, HAB” value worked out at 4.7; the “ratio of specific signal, MAB” value was 2.9.
With `COc1ccc(OC)c(CN(C(=O)CF)c2ccccc2Oc2ccccc2)c1` [PBR06], the Ki on TSPO [3] (setting [14]) is 149 ± 46.6 nM; at TSPO [3] (setting [16]), 176 nM; on TSPO [4] (setting [15]) it was 8.6 ± 2 nM; at TSPO [4] (setting [17]), 13.4 nM. Further, the “ratio of specific signal, LAB” value in the assay on TSPO [1] was 1. Moreover, in the assay with TSPO [1], the LAB/HAB was determined as 17. In the assay with TSPO [1], the “ratio of specific signal, HAB” value was 17.3. Moreover, the “ratio of specific signal, MAB” value in the assay on TSPO [1] was determined as 9.2.

The values are drawn from patent publication US20140301947A1, “METHODS TO PREDICT BINDING AFFINITY OF TSPO IMAGING AGENTS TO TSPO” (IMPERIAL INNOVATIONS LIMITED, priority 2011, published 2014).
